Data set [1] relates to murine B16 melanoma cells. In words: Subcutaneous murine B16 melanoma tumor model in C57BL/6 mice (tumor volume, tumor weight). The format is in vivo. As to conditions: for percent inhibition of tumor weight (PITW): Day 16 necropsy, DTIC 5 mg/kg s.c. daily, TA-1 6 mg/kg s.c. daily, 9H10 i.p. Day 3 (100 μg), Day 6 (50 μg), Day 9 (50 μg), vs vehicle. How it is done: (§1) C57BL/6 mice were implanted subcutaneously with murine B16 melanoma cells (Cell Culture Center, Institute of Basic Medical Sciences, Peking Union Medical College and Chinese Academy of Medical Sciences PUMC&CAMS, Beijing, P.R.China), followed by treatment with TA-1 or DTIC alone or in combination for 14 consecutive days. The day of tumor implantation was defined as Day 0. Meanwhile 9H10 was given in two groups via i.p. on Day 3, 6 and 9. TA-1 and DTIC were administered daily by s.c. injection. In total, 5 groups of mice (n=10) were used: Group 1: vehicle; Group 2: DTIC 5 mg/kg; Group 3: TA-1 6 mg/kg; Group 4: DTIC 5 mg/kg+9H10 (Day 3 (100 μg), Day 6 (50 μg), Day 9 (50 μg)); Group 5: DTIC 5 mg/kg+TA-1 6 mg/kg+9H10 (Day 3 (100 μg), Day 6 (50 μg), Day 9 (50 μg)) (Table 1). The animals were six weeks old and weighed between 18 and 22 grams at the start of the study. Tumor volume and body weight were measured every three days, and tumor weights were measured on Day 16 at the end of the study.
Phosphate buffered saline (PBS) was used as the negative control article (vehicle). TA-1 solution was stored at 2-8° C. and used up in one week. DTIC(SIGMA) was initially dissolved in 0.01 N HCl and then diluted with PBS to 1 mg/mL. DTIC dosing solution was kept on ice, protected from light, and used within one day. Final dosing solutions were prepared on the day of use by diluting the stock solution to 1× with water. The antibody reagent 9H10 (EBIOSCIENCE) was a ready-to-use agent at a concentration of 1 mg/mL.
Mortality and moribundity were checked twice daily, the body weights were recorded once every 3 days, and tumors were measured using a caliper once every 3 days. […]
Based on the tumor size, the tumor volume (TV) was calculated with the formula: [TV=(Length×Width×Width)/2]. And the percent inhibition (PI) of TV (PITV) was calculated according to the equation below: […]
The anti-tumor effect of the test article was further evaluated with tumor weight (TW) measured on day of necropsy (Day 16). The PI of TW was calculated using the equation below: […]

Data set [2] can be described thus: Body weight of B16 tumor-bearing C57BL/6 mice during treatment. Conditions: TA-1 6 mg/kg s.c. daily, alone or in combination, throughout the course of the study. The format is in vivo. The procedure:
as §1
Mortality and moribundity were checked twice daily, the body weights were recorded once every 3 days, and tumors were measured using a caliper once every 3 days. At the end of the study (Day 16), the animals were euthanized by CO2 asphyxiation, and the tumors were excised and weighed.

No end group written: not given here.

As for `CN(C)/N=N/c1[nH]cnc1C(N)=O` [DTIC, dacarbazine, reference compound], in data set [1], the “percent inhibition of tumor weight (PITW)” value was found to be 28.41%.
Consider “thymosin alpha 1 (Ac-SDAAVDTSSEITTKDLKEKKEVVEEAEN; ends and bridges not checked; UniProt P06454 2-29, looked up) [TA-1, 28 amino acid peptide with a molecular weight of 3108, initially isolated from Thymosin Fraction 5]”, for which, in data set [2], the “loss of body weight” value was “did not cause any loss of body weight”. Also, the “mice with palpable tumors” value in data set [1] (Day 9, n=10 per group) is reported as “most mice”. In data set [1], the “percent inhibition of tumor weight (PITW)” value stood at 43.35%.

Values taken from patent US20100330093A1, “TREATMENT OF MELANOMA WITH ALPHA THYMOSIN PEPTIDES IN COMBINATION WITH ANTIBODIES AGAINST CYTOTOXIC T LYMPHOCYTE-ASSOCIATED ANTIGEN 4 (CTLA4)” (SciClone Pharmaceuticals, Inc., priority 2007, published 2010).
